Measured values published in patent publication US7285534B2, “Corticotropin-releasing hormone analogs and their uses” (The Regents of the University of California, priority 2002, dated 2007).
“Also recorded” adds a separate entry of the source. Like-named read-outs stand apart in the source and are kept apart here. Residues, ends and D or L forms follow the SMILES beside them.

Legend:
[1] = test system: S91 mouse Cloudman cells (cell line M3); assay: In vitro anti-proliferation assay, Cloudman melanoma cell counts; assay type: cell-based; settings: for EC50: Cloudman melanoma cells; for Anti-proliferative effect on Cloudman melanoma cells (in words): in vitro
Description: S91 mouse Cloudman cells (cell line M3) were obtained from the American Type Culture Collection. Hams F-10 medium, fetal bovine serum, and horse serum were obtained from Gibco BRL. Cloudman cells were cultured in Ham's F-10 medium supplemented with 5% horse serum, 2.5% fetal bovine serum, and 1% penicillin/streptomycin in a humidified incubator with 5% C02 at 37° C. Media were changed every second day.
Cells were plated at a concentration of ˜20,000 cells per well in Ham's F-10 medium supplemented with 5% horse serum, 2.5% fetal bovine serum and 1% penicillin/streptomycin into tissue-culture-12-well plates. Test peptides or sterile water containing 0.5% BSA (vehicle control) were added to culture medium prior to plating, and cells were allowed to adhere overnight in a humidified incubator with 5% CO2 at 37° C. Culture medium containing peptides and culture medium containing vehicle control were changed daily. For counting, cells were detached with 200 μL of 0.25% trypsin. Detachment levels were verified under a light microscope. After detachment, cell suspensions were transferred to 1.5-mL Eppendorf tubes, vigorously pipetted for uniform suspension, and cell number in 10 μL of cell suspension was counted in a hemacytometer under a light microscope.

[2] = Hypotensive activity relative to CRH; settings: in vivo
[3] = test system: W256 rat mammary carcinoma; settings: 100 micrograms/kg subcutaneously twice a day for 3 days; cited from earlier work
W256 cells = settings: cited from earlier work
[4] = read-out: EC50 values for CRH peptides versus Cloudman melanoma
[5] = Cloudman cells, relative to CRH

## CC[C@H](C)[C@H](NC(=O)[C@@H](NC(=O)[C@H](CC(=O)O)NC(=O)[C@H](CC(C)C)NC(=O)[C@H](CC(C)C)NC(=O)[C@H](CC(C)C)NC(=O)[C@H](CCCNC(=N)N)NC(=O)[C@H](CC(N)=O)NC(=O)[C@H](CC(N)=O)NC(=O)[C@H](C)NC(=O)[C@H](C)NC(=O)[C@H](CCC(N)=O)NC(=O)[C@H](CCC(N)=O)NC(=O)[C@H](CCCCN)NC(=O)[C@H](CCC(=O)O)NC(=O)[C@H](CCCCN)NC(=O)[C@H](CCC(=O)O)NC(=O)[C@H](CCC(N)=O)NC(=O)[C@H](CCCCN)NC(=O)[C@H](CCC(=O)O)NC(=O)[C@@H](NC(=O)[C@H](CCC(=O)O)NC(=O)[C@@H](NC(=O)[C@H](CCSC)NC(=O)[C@H](CCCCN)NC(=O)[C@H](CCCNC(=N)N)NC(=O)[C@H](CC(C)C)NC(=O)[C@H](CC(C)C)NC(=O)[C@H](CCC(=O)O)NC(=O)[C@H](CC(C)C)NC(=O)[C@H](CO)NC(=O)[C@H](CC(C)C)NC(=O)[C@H](CC(=O)O)NC(=O)[C@@H](NC(=O)[C@H](CO)NC(=O)[C@@H](NC(=O)[C@@H]1CCCN1C(=O)[C@@H]1CCCN1C(=O)CNC(=O)[C@@H]1CCC(=O)N1)[C@@H](C)CC)[C@@H](C)CC)[C@@H](C)CC)[C@@H](C)CC)[C@@H](C)O)C(N)=O [VII, Sauvagine]
[1]; [4]
  EC50: 7.8 pM
[1]
  Anti-proliferative effect on Cloudman melanoma cells (in words): highly effective in suppressing proliferation

## α-helical-CRH(9-41)
[1]; Cloudman cells
  Inhibition of the anti-proliferative effect of CRH peptides by the CRH receptor antagonist: inhibited

## CC[C@H](C)[C@H](NC(=O)[C@@H](NC(=O)[C@H](CCC(=O)O)NC(=O)[C@H](CCSC)NC(=O)[C@H](CC(C)C)NC(=O)[C@H](CCCCN)NC(=O)[C@H](CCCNC(=N)N)NC(=O)[C@H](CC(N)=O)NC(=O)[C@H](CO)NC(=O)[C@H](Cc1c[nH]cn1)NC(=O)[C@H](C)NC(=O)[C@H](CCC(N)=O)NC(=O)[C@H](CCC(N)=O)NC(=O)[C@H](C)NC(=O)[C@H](CC(C)C)NC(=O)[C@H](CCC(N)=O)NC(=O)[C@H](CCC(=O)O)NC(=O)[C@H](C)NC(=O)[C@H](CCCNC(=N)N)NC(=O)[C@H](C)NC(=O)[C@H](CCSC)NC(=O)[C@@H](CCC(=O)O)NC(=O)[C@H](CC(C)C)NC(=O)[C@@H](NC(=O)[C@H](CCC(=O)O)NC(=O)[C@H](CCCNC(=N)N)NC(=O)[C@H](CC(C)C)NC(=O)[C@H](CC(C)C)NC(=O)[C@H](Cc1c[nH]cn1)NC(=O)[C@H](Cc1ccccc1)NC(=O)[C@@H](NC(=O)[C@H](CC(C)C)NC(=O)[C@H](CC(=O)O)NC(=O)[C@H](CC(C)C)NC(=O)[C@H](CO)NC(=O)[C@@H](NC(=O)[C@@H]1CCCN1C(=O)[C@@H]1CCCN1C(=O)[C@H](CCC(=O)O)NC(=O)[C@H](CCC(=O)O)NC(=O)[C@@H](N)CO)[C@@H](C)CC)[C@@H](C)O)C(C)C)[C@@H](C)CC)C(N)=O [II, [D-Glu^20]-CRH]
[1]; [4]
  EC50: 16 pM
[1]
  Anti-proliferative effect on Cloudman melanoma cells (in words): retained; also recorded: significantly inhibit proliferation
[2]
  Hypotensive activity relative to CRH: diminished

## CC[C@H](C)[C@H](NC(=O)[C@@H](NC(=O)[C@H](CCC(=O)O)NC(=O)[C@H](CCSC)NC(=O)[C@H](CC(C)C)NC(=O)[C@H](CCCCN)NC(=O)[C@H](CCCNC(=N)N)NC(=O)[C@H](CC(N)=O)NC(=O)[C@H](CO)NC(=O)[C@H](Cc1c[nH]cn1)NC(=O)[C@H](C)NC(=O)[C@H](CCC(N)=O)NC(=O)[C@H](CCC(N)=O)NC(=O)[C@H](C)NC(=O)[C@H](CC(C)C)NC(=O)[C@H](CCC(N)=O)NC(=O)[C@H](CCC(=O)O)NC(=O)[C@H](C)NC(=O)[C@H](CCCNC(=N)N)NC(=O)[C@H](C)NC(=O)[C@H](CCSC)NC(=O)[C@H](CCC(=O)O)NC(=O)[C@H](CC(C)C)NC(=O)[C@@H](NC(=O)[C@H](CCC(=O)O)NC(=O)[C@H](CCCNC(=N)N)NC(=O)[C@H](CC(C)C)NC(=O)[C@H](CC(C)C)NC(=O)[C@H](Cc1c[nH]cn1)NC(=O)[C@H](Cc1ccccc1)NC(=O)[C@@H](NC(=O)[C@H](CC(C)C)NC(=O)[C@H](CC(=O)O)NC(=O)[C@H](CC(C)C)NC(=O)[C@H](CO)NC(=O)[C@@H](NC(=O)[C@H]1CCCN1C(=O)[C@@H]1CCCN1C(=O)[C@H](CCC(=O)O)NC(=O)[C@H](CCC(=O)O)NC(=O)[C@@H](N)CO)[C@@H](C)CC)[C@@H](C)O)C(C)C)[C@@H](C)CC)C(N)=O [III, [D-Pro^5]-CRH]
[1]; [5]
  EC50 fold greater than CRH: 10 fold
[1]; [4]
  EC50: 82 pM

## acetyl-cyclo (30-33)[D-Phe^12, Nle^18, D-Glu^20, Nle^21, Glu^30, D-Ala^32]-urotensin 1(4-41) [Peptide V]
[1]; [5]
  EC50 fold lower than that of CRH: 10 fold
[1]
  Anti-proliferative effect on Cloudman melanoma cells (in words): highly effective in suppressing proliferation

## CC[C@H](C)[C@H](NC(=O)[C@H](CO)NC(=O)[C@H](CC(C)C)NC(=O)[C@H](CO)NC(=O)[C@@H]1CCCN1C(=O)[C@H](CC(N)=O)NC(=O)[C@@H](N)CC(=O)O)C(=O)N[C@@H](CC(=O)O)C(=O)N[C@@H](CC(C)C)C(=O)N[C@H](C(=O)N[C@@H](Cc1ccccc1)C(=O)N[C@@H](Cc1c[nH]cn1)C(=O)N[C@@H](CC(C)C)C(=O)N[C@@H](CC(C)C)C(=O)N[C@@H](CCCNC(=N)N)C(=O)N[C@H](C(=O)N[C@@H](CC(C)C)C(=O)N[C@@H](CC(C)C)C(=O)N[C@@H](CCC(=O)O)C(=O)N[C@@H](CC(C)C)C(=O)N[C@@H](C)C(=O)N[C@@H](CCCNC(=N)N)C(=O)N[C@H](C(=O)N[C@@H](CCC(N)=O)C(=O)N[C@@H](CO)C(=O)N[C@@H](CCC(N)=O)C(=O)N[C@@H](CCCNC(=N)N)C(=O)N[C@@H](CCC(=O)O)C(=O)N[C@@H](CCCNC(=N)N)C(=O)N[C@@H](C)C(=O)N[C@@H](CCC(=O)O)C(=O)N[C@@H](CCC(N)=O)C(=O)N[C@@H](CC(N)=O)C(=O)N[C@@H](CCCNC(=N)N)C(=O)N[C@H](C(=O)N[C@H](C(=O)N[C@@H](Cc1ccccc1)C(=O)N[C@@H](CC(=O)O)C(=O)N[C@@H](CO)C(=O)N[C@H](C(N)=O)C(C)C)[C@@H](C)CC)[C@@H](C)CC)[C@@H](C)O)[C@@H](C)O)[C@@H](C)O [VI, Urocortin] (H-DNPSLSIDLTFHLLRTLLELARTQSQRERAEQNRIIFDSV-NH2)
[1]; [4]
  EC50: 9.5 pM
[1]
  Anti-proliferative effect on Cloudman melanoma cells (in words): highly effective in suppressing proliferation

## CC[C@H](C)[C@H](NC(=O)[C@@H](NC(=O)[C@H](CCC(=O)O)NC(=O)[C@H](CCSC)NC(=O)[C@H](CC(C)C)NC(=O)[C@H](CCCCN)NC(=O)[C@H](CCCNC(=N)N)NC(=O)[C@H](CC(N)=O)NC(=O)[C@H](CO)NC(=O)[C@H](Cc1c[nH]cn1)NC(=O)[C@H](C)NC(=O)[C@H](CCC(N)=O)NC(=O)[C@H](CCC(N)=O)NC(=O)[C@H](C)NC(=O)[C@H](CC(C)C)NC(=O)[C@H](CCC(N)=O)NC(=O)[C@H](CCC(=O)O)NC(=O)[C@H](C)NC(=O)[C@H](CCCNC(=N)N)NC(=O)[C@H](C)NC(=O)[C@H](CCSC)NC(=O)[C@H](CCC(=O)O)NC(=O)[C@H](CC(C)C)NC(=O)[C@@H](NC(=O)[C@H](CCC(=O)O)NC(=O)[C@H](CCCNC(=N)N)NC(=O)[C@H](CC(C)C)NC(=O)[C@H](CC(C)C)NC(=O)[C@H](Cc1c[nH]cn1)NC(=O)[C@H](Cc1ccccc1)NC(=O)[C@@H](NC(=O)[C@H](CC(C)C)NC(=O)[C@H](CC(=O)O)NC(=O)[C@H](CC(C)C)NC(=O)[C@H](CO)NC(=O)[C@@H](NC(=O)[C@@H]1CCCN1C(=O)[C@@H]1CCCN1C(=O)[C@H](CCC(=O)O)NC(=O)[C@H](CCC(=O)O)NC(=O)[C@@H](N)CO)[C@@H](C)CC)[C@@H](C)O)C(C)C)[C@@H](C)CC)C(N)=O [Peptide I, CRH]
[1]; Cloudman cells
  Time of maximum suppression of proliferation after treatment: about 96 hr
[1]; 96 hr, read-out: EC50 of CRH after 96 hr
  EC50: 9 pM
[1]; [4]
  EC50: 8.6 pM
[1]
  Anti-proliferative effect on Cloudman melanoma cells (in words): Significant anti-proliferative effects
[3]
  Inhibition of growth of intracerebrally-injected W256 tumor cells: significant inhibition of growth
W256 cells
  Antiproliferative effects in in vitro cultures of W256 cells: exhibited antiproliferative effects
